# Laboratory results: US4684664A, “Derivatives of β-(4-isocyano-1,2,3,4-diepoxycyclopentyl) acrylic acid” (Kureha Kagaku Kogyo Kabushiki Kaisha, priority 1984, dated 1987)
# Assays:
# Format in all cases: cell-based
# [1] = test system: Candida albicans IAM 4905; test: Antifungal activity, agar-dilution MIC, organism No. 29; conditions: Candida albicans, IAM4905; Organism No. 29, bouillon-agar; read-out: Minimum Inhibitory Concentration
# Description: (§1) Agar-dilution method was used for determination of the antibacterial activity and antifungal activity while using bouillon-agar culture medium, and the minimum inhibitory concentration of the specimen was expressed by μg/ml of the culture medium.
# [2] = test system: Proteus morganii IFO 3848; test: Antibacterial activity, agar-dilution MIC, organism No. 18; conditions: Morganella morganii, IFO3848; Organism No. 18, bouillon-agar; read-out: Minimum Inhibitory Concentration
# Description: as §1
# [3] = test system: Salmonella enteritidis G 14; test: Antibacterial activity, agar-dilution MIC, organism No. 12; conditions: Salmonella enterica, ENTERITIDIS; Organism No. 12, bouillon-agar; read-out: Minimum Inhibitory Concentration
# Description: as §1
# [4] = test system: Mycoplasma pneumoniae IID817; test: Antimycoplasmal activity, MIC by phenol red colour change, organism No. 28; conditions: Mycoplasma, IID817; Organism No. 28, PPLO broth + 1% glucose, 37° C.; read-out: Minimum Inhibitory Concentration (MIC)
# Procedure: Mycoplasma pneumoniae IID817 was used as the test microorganism in a culture medium prepared by adding 1% of glucose to "PPLO broth (manufactured by Difco Co.) liquid culture medium" at 37° C. with phenol red as an indicator, thereby culturing the test microorganism.
# [5] = test system: Pseudomonas aeruginosa IFO 3445; test: Antibacterial activity, agar-dilution MIC, organism No. 15; conditions: Pseudomonas aeruginosa, IFO3445; Organism No. 15, bouillon-agar; read-out: Minimum Inhibitory Concentration
# Description: as §1
# [6] = test system: Salmonella typhimurium IID 971; test: Antibacterial activity, agar-dilution MIC, organism No. 8; conditions: Salmonella enterica; Organism No. 8, bouillon-agar; read-out: Minimum Inhibitory Concentration
# Description: as §1
# [7] = test system: Streptococcus pyogenes IFO 3340; test: Antibacterial activity, agar-dilution MIC, organism No. 26; conditions: Streptococcus pyogenes, IFO3340; Organism No. 26, bouillon-agar; read-out: Minimum Inhibitory Concentration
# Description: as §1
# [8] = test system: Proteus mirabilis IFO 3849; test: Antibacterial activity, agar-dilution MIC, organism No. 19; conditions: Proteus mirabilis, IFO3849; Organism No. 19, bouillon-agar; read-out: Minimum Inhibitory Concentration
# Description: as §1
# [9] = test system: Escherichia coli NIHJ-JC-2; test: Antibacterial activity, agar-dilution MIC, organism No. 5; conditions: Escherichia coli, NIHJJC2; Organism No. 5, bouillon-agar; read-out: Minimum Inhibitory Concentration
# Description: as §1
# [10] = test system: Streptococcus pyogenes Cook; test: Antibacterial activity, agar-dilution MIC, organism No. 4; conditions: Streptococcus pyogenes; Organism No. 4, bouillon-agar; read-out: Minimum Inhibitory Concentration
# Description: as §1
# [11] = test system: Staphylococcus aureus FDA 209PJc-1; test: Antibacterial activity, agar-dilution MIC, organism No. 1; conditions: Staphylococcus aureus, FDA209PJC1; Organism No. 1, bouillon-agar; read-out: Minimum Inhibitory Concentration
# Description: as §1
# [12] = test system: Salmonella shottmuelleri 8006; test: Antibacterial activity, agar-dilution MIC, organism No. 11; conditions: Salmonella, 8006; Organism No. 11, bouillon-agar; read-out: Minimum Inhibitory Concentration
# Description: as §1
# [13] = test system: Pseudomonas aeruginosa NCTC 10490; test: Antibacterial activity, agar-dilution MIC, organism No. 16; conditions: Pseudomonas aeruginosa, NCTC10490; Organism No. 16, bouillon-agar; read-out: Minimum Inhibitory Concentration
# Description: as §1
# [14] = test system: Salmonella typhi 901; test: Antibacterial activity, agar-dilution MIC, organism No. 9; conditions: Salmonella enterica, TYPHI, read-out: Minimum Inhibitory Concentration
# Description: as §1
# [15] = test system: Proteus rettgeri IFO 3850; test: Antibacterial activity, agar-dilution MIC, organism No. 22; conditions: Providencia rettgeri, IFO3850; Organism No. 22, bouillon-agar; read-out: Minimum Inhibitory Concentration
# Description: as §1
# [16] = test system: Bacillus subtilis ATCC 6633; test: Antibacterial activity, agar-dilution MIC, organism No. 14; conditions: Bacillus subtilis, ATCC6633; Organism No. 14, bouillon-agar; read-out: Minimum Inhibitory Concentration
# Description: as §1
# [17] = test system: Pseudomonas aeruginosa PAO 1; test: Antibacterial activity, agar-dilution MIC, organism No. 17; conditions: Pseudomonas aeruginosa, PAO1; Organism No. 17, bouillon-agar; read-out: Minimum Inhibitory Concentration
# Description: as §1
# [18] = test system: Enterobacter aerogenes ATCC 13048; test: Antibacterial activity, agar-dilution MIC, organism No. 23; conditions: Klebsiella aerogenes, ATCC13048; Organism No. 23, bouillon-agar; read-out: Minimum Inhibitory Concentration
# Description: as §1
# [19] = test system: Enterobacter cloacae 963; test: Antibacterial activity, agar-dilution MIC, organism No. 24; conditions: Enterobacter cloacae, 963; Organism No. 24, bouillon-agar; read-out: Minimum Inhibitory Concentration
# Description: as §1
# [20] = test system: Proteus vulgaris OX-19; test: Antibacterial activity, agar-dilution MIC, organism No. 20; conditions: Proteus vulgaris, OX19; Organism No. 20, bouillon-agar; read-out: Minimum Inhibitory Concentration
# Description: as §1
# [21] = test system: Salmonella paratyphi-A 1015; test: Antibacterial activity, agar-dilution MIC, organism No. 10; conditions: Salmonella enterica, PARATYPHI, read-out: Minimum Inhibitory Concentration
# Description: as §1
# [22] = test system: Staphylococcus aureus MS 353; test: Antibacterial activity, agar-dilution MIC, organism No. 3; conditions: Staphylococcus aureus, MS353; Organism No. 3, bouillon-agar; read-out: Minimum Inhibitory Concentration
# Description: as §1
# [23] = test system: Staphylococcus aureus Terajima; test: Antibacterial activity, agar-dilution MIC, organism No. 2; conditions: Staphylococcus aureus; Organism No. 2, bouillon-agar; read-out: Minimum Inhibitory Concentration
# Description: as §1
# [24] = test system: Escherichia coli K12 C600 IAM 1264; test: Antibacterial activity, agar-dilution MIC, organism No. 6; conditions: Escherichia coli, IAM1264; Organism No. 6, bouillon-agar; read-out: Minimum Inhibitory Concentration
# Description: as §1
# [25] = test system: Aspergillus niger IFO 6342; test: Antifungal activity, agar-dilution MIC, organism No. 30; conditions: Aspergillus niger, IFO6342; Organism No. 30, bouillon-agar; read-out: Minimum Inhibitory Concentration
# Description: as §1
# [26] = test system: Klebsiella pneumoniae PCI-602; test: Antibacterial activity, agar-dilution MIC, organism No. 7; conditions: Klebsiella pneumoniae, PCI602; Organism No. 7, bouillon-agar; read-out: Minimum Inhibitory Concentration
# Description: as §1
# [27] = test system: Micrococcus luteus ATCC 9341; test: Antibacterial activity, agar-dilution MIC, organism No. 25; conditions: Micrococcus luteus, ATCC9341; Organism No. 25, bouillon-agar; read-out: Minimum Inhibitory Concentration
# Description: as §1
# [28] = test system: Proteus vulgaris HX-19; test: Antibacterial activity, agar-dilution MIC, organism No. 21; conditions: Proteus vulgaris, HX19; Organism No. 21, bouillon-agar; read-out: Minimum Inhibitory Concentration
# Description: as §1
# [29] = test system: Streptococcus faecium IFO 3826; test: Antibacterial activity, agar-dilution MIC, organism No. 27; conditions: Enterococcus faecium, IFO3826; Organism No. 27, bouillon-agar; read-out: Minimum Inhibitory Concentration
# Description: as §1
SMILES,MIC [1] [µg/mL],MIC [2] [µg/mL],MIC [3] [µg/mL],MIC [5] [µg/mL],MIC [6] [µg/mL],MIC [7] [µg/mL],MIC [8] [µg/mL],MIC [9] [µg/mL],MIC [10] [µg/mL],MIC [11] [µg/mL],MIC [12] [µg/mL],MIC [13] [µg/mL],MIC [14] [µg/mL],MIC [15] [µg/mL],MIC [16] [µg/mL],MIC [17] [µg/mL],MIC [19] [µg/mL],MIC [20] [µg/mL],MIC [21] [µg/mL],MIC [22] [µg/mL],also measured
[C-]#[N+]C12CC3(/C=C/C(=O)Nc4ccccc4)OC3C1O2 (stereo not shown) [Compound No. 36],0.39,0.39,0.78,> 200,12.5,0.2,12.5,12.5,1.56,0.39,< 0.05,> 200,3.13,3.13,12.5,> 200,200,0.78,0.39,0.39,MIC [4]: < 0.2 µg/mL; MIC [18]: > 200 µg/mL; MIC [23]: 0.78 µg/mL; MIC [24]: 6.25 µg/mL; MIC [25]: 1.56 µg/mL; MIC [26]: 0.39 µg/mL; MIC [27]: < 0.05 µg/mL; MIC [28]: < 0.05 µg/mL
[C-]#[N+]C12CC3(/C=C/C(=O)N4CCN(C)CC4)OC3C1O2 (stereo not shown) [compound 23],1.56,12.5,25,> 200,50,50,> 200,50,50,200,50,> 200,12.5,> 200,200,> 200,200,25,25,200,MIC [18]: > 200 µg/mL; MIC [23]: > 200 µg/mL; MIC [24]: 50 µg/mL; MIC [25]: 3.13 µg/mL; MIC [26]: 200 µg/mL; MIC [29]: 100 µg/mL; MIC [27]: < 0.05 µg/mL; MIC [28]: 25 µg/mL
[C-]#[N+]C12CC3(/C=C/C(=O)N4CCC[C@H]4C(=O)OCc4ccccc4)OC3C1O2 (stereo partly shown) [compound 32],> 100,> 200,> 200,> 200,> 200,200,> 200,> 200,> 200,200,> 200,> 200,> 200,> 200,> 200,> 200,> 200,> 200,> 200,200,MIC [4]: > 100 µg/mL; MIC [23]: 200 µg/mL; MIC [24]: > 200 µg/mL; MIC [25]: > 100 µg/mL; MIC [26]: > 200 µg/mL; MIC [29]: 200 µg/mL; MIC [27]: 1.56 µg/mL; MIC [28]: > 200 µg/mL
[C-]#[N+]C12CC3(/C=C/C(=O)NC4C(=O)N5C(C(=O)OCC(=O)c6ccc(Br)cc6)=C(C)CSC45)OC3C1O2 (stereo not shown) [compound 34],> 100,> 100,> 100,> 100,> 100,> 100,> 100,> 100,> 100,> 100,> 100,> 100,> 100,> 100,> 100,> 100,> 100,> 100,> 100,> 100,MIC [4]: > 100 µg/mL; MIC [18]: > 100 µg/mL; MIC [23]: > 100 µg/mL; MIC [24]: > 100 µg/mL; MIC [25]: > 100 µg/mL; MIC [26]: > 100 µg/mL; MIC [29]: > 100 µg/mL; MIC [28]: 100 µg/mL
